Test results from publication PMC5155509 (ChemMedChem, 2016).
In brackets after ≈: the same amount, converted by molar mass. Several values for one entry are separate records, joined by “and”; a condition that tells them apart may be missing. Equal entries are not always repeated. Where two headings read alike, the source gives them in different places.

What was measured:
B. subtilis [1] = experiment: B. subtilis growth inhibition assay; assay type: cell-based, Bacillus subtilis; settings: 12 hours at 37°C, OD600
SaUPPS = molecular target: T1, SaUPPS (Staphylococcus aureus, UniProt P60477); experiment: biochemical; assay type: biochemical
T1 sequence (P60477 1-256): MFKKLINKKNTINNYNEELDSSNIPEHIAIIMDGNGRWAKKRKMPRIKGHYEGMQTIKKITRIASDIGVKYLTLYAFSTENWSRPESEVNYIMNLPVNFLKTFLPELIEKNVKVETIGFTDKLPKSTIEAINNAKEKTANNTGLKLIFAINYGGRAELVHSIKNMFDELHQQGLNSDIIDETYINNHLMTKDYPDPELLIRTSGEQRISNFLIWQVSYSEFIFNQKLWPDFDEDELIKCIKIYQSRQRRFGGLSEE

[2] = molecular target: EcUPPP (fusion hybrid of E. coli UPPP with Haloarcula marismortui bacteriorhodopsin) (UniProt P60932+Q5UXY6, D94N); assay type: biochemical; settings: read-out: IC50 EcUPPP
EcUPPP (fusion hybrid of E. coli UPPP with Haloarcula marismortui bacteriorhodopsin), sequence (P60932 whole entry, looked up, the tested form may be a part): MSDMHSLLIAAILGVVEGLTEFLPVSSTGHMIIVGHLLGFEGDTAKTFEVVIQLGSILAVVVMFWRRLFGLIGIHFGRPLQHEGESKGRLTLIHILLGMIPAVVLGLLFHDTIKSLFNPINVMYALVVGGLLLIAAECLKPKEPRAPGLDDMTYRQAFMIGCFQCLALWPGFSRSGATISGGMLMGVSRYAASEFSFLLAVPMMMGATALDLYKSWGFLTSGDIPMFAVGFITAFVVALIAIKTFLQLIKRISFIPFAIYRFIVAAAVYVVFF
EcUPPP (fusion hybrid of E. coli UPPP with Haloarcula marismortui bacteriorhodopsin), sequence (Q5UXY6 whole entry, looked up, stated change not applied, the tested form may be a part): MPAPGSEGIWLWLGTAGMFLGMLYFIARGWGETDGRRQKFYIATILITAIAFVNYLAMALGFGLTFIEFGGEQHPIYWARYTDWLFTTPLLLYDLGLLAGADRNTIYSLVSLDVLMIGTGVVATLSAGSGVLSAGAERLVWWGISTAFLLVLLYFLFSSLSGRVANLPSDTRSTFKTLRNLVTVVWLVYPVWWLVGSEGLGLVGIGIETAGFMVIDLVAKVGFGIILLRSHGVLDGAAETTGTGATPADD

[3] = tested on: Staphylococcus aureus and Bacillus subtilis; experiment: Bacterial cell growth inhibition, bacterium not specified at the place; assay type: cell-based
B. subtilis [4] = experiment: Synergy/antagonism two-drug combination assay, B. subtilis; assay type: cell-based, Bacillus subtilis; settings: for FIC antibiotic / FIC Index / Mean FICI / FIC 7: B. subtilis; for FIC antibiotic: antibiotic in combination with 7, mean±SD duplicate; for FIC Index: combination of the antibiotic with 7, mean±SD; for MIC: Bacillus subtilis
S. aureus = experiment: Synergy/antagonism two-drug combination assay, S. aureus; assay type: cell-based, Staphylococcus aureus; settings: for FIC antibiotic / FIC Index / Mean FICI / FIC 7: S. aureus; for FIC antibiotic: antibiotic in combination with 7, mean±SD duplicate; for FIC Index: combination of the antibiotic with 7, mean±SD; for MIC: Staphylococcus aureus
B. subtilis [5] = settings: earlier work of the authors, no reference given; cited from earlier work
E. coli = settings: earlier work of the authors, no reference given; cited from earlier work
E. coli UPPS (EcUPPS) = settings: read-out: IC50 EcUPPS; previous work ref 3b; cited from earlier work
NCI-H460 cells = experiment: H460 cell toxicity; assay type: cell-based, human; settings: 24 h, MTT
[6] = tested on: S. aureus and B. subtilis; experiment: Synergy/antagonism assays, average over B. subtilis and S. aureus combinations; assay type: cell-based
[7] = 7 with inhibitors targeting cell wall biosynthesis
[8] = 7 with inhibitors targeting nucleic acids and protein biosynthesis

2-(N-Methyl-3-(octyloxy)benzamido)phenylphosphonic acid [Compound 31]
ED50 B. subtilis cell growth (B. subtilis [1]): >100 µg/mL
IC50 (SaUPPS; read-out: IC50 SaUPPS, 5 μM FPP, 50 μM IPP, pH 7.5): 39 µM
IC50 [2]: 6.5 µM
antibacterial activity (in words) ([3]; S. aureus and B. subtilis cell growth): little or no antibacterial activity

CC1(C)S[C@@H]2[C@H](NC(=O)[C@H](N)c3ccccc3)C(=O)N2[C@H]1C(=O)O [Ampicillin, ampicillin]
FIC antibiotic (B. subtilis [4]): 0.30 ± 0.072
FIC Index (B. subtilis [4]): 0.53 ± 0.11
MIC (B. subtilis [4]; 24 h, read-out: MIC antibiotic): 0.5 µg/mL
FIC antibiotic (S. aureus): 0.41 ± 0.17
FIC Index (S. aureus): 0.56 ± 0.18
MIC (S. aureus; 24 h, read-out: MIC antibiotic): 0.5 µg/mL

CC1(C)S[C@@H]2[C@H](NC(=O)C(C(=O)O)c3ccccc3)C(=O)N2[C@H]1C(=O)O (some centres unmarked) [Carbenicillin, carbenicillin]
FIC antibiotic (B. subtilis [4]): 0.22 ± 0.073
FIC Index (B. subtilis [4]): 0.37 ± 0.10
MIC (B. subtilis [4]; 24 h, read-out: MIC antibiotic): 5 µg/mL
FIC antibiotic (S. aureus): 0.23 ± 0.048
FIC Index (S. aureus): 0.30 ± 0.055
MIC (S. aureus; 24 h, read-out: MIC antibiotic): 15 µg/mL

CO/N=C(\C(=O)N[C@@H]1C(=O)N2C(C(=O)O)=C(COC(C)=O)CS[C@H]12)c1csc(N)n1 [Cefotaxime, cefotaxime]
FIC antibiotic (B. subtilis [4]): 0.17 ± 0.026
FIC Index (B. subtilis [4]): 0.31 ± 0.085
MIC (B. subtilis [4]; 24 h, read-out: MIC antibiotic): 2.5 µg/mL
FIC antibiotic (S. aureus): 0.18 ± 0.055
FIC Index (S. aureus): 0.27 ± 0.063
MIC (S. aureus; 24 h, read-out: MIC antibiotic): 2 µg/mL

O=C(N[C@H](CO)[C@H](O)c1ccc([N+](=O)[O-])cc1)C(Cl)Cl [Chloramphenicol, chloramphenicol]
FIC antibiotic (B. subtilis [4]): 0.75 ± 0.18
FIC Index (B. subtilis [4]): 1.72 ± 0.46
MIC (B. subtilis [4]; 24 h, read-out: MIC antibiotic): 0.5 µg/mL
FIC antibiotic (S. aureus): 0.88 ± 0.47
FIC Index (S. aureus): 1.69 ± 0.56
MIC (S. aureus; 24 h, read-out: MIC antibiotic): 5 µg/mL

CCCCCCCCCCOc1cccc(C(=O)Nc2ccc([N+](=O)[O-])cc2C(=O)O)c1 [Compound 6, 2-(3-(decyloxy)benzamido)-5-nitrobenzoic acid]
ED50 against B. subtilis (B. subtilis [5]): 1.3 µM
activity against E. coli (in words) (E. coli): no activity
IC50 (E. coli UPPS (EcUPPS)): 3 µM

CCCCCCCCOc1cccc(C(=O)Nc2ccc(F)cc2C(=O)O)c1 [Compound 7, 5-Fluoro-2-(3-(octyloxy)benzamido)benzoic acid]
ED50 B. subtilis cell growth (B. subtilis [1]): 0.14 µg/mL (≈ 0.361 µM)
IC50 (SaUPPS): 0.32 µM
toxicity against human cell line NCI-H460 (in words) (NCI-H460 cells): low activity
Mean FICI (B. subtilis [4]; [7]): 0.37 and 0.37 ± 0.14
Mean FICI (B. subtilis [4]; [8]): 1.47 and 1.47 ± 0.28
FIC 7 (B. subtilis [4]; with Ampicillin): 0.23 ± 0.084
FIC 7 (B. subtilis [4]; with Bacitracin): 0.36 ± 0.14
FIC 7 (B. subtilis [4]; with Carbenicillin): 0.15 ± 0.071
FIC 7 (B. subtilis [4]; with Cefotaxime): 0.14 ± 0.081
FIC 7 (B. subtilis [4]; with Chloramphenicol): 0.97 ± 0.42
FIC 7 (B. subtilis [4]; with Fosfomycin): 0.063 ± 0.022
FIC 7 (B. subtilis [4]; with Fosmidomycin): 0.13 ± 0.056
FIC 7 (B. subtilis [4]; with Kanamycin): 0.71 ± 0.30
FIC 7 (B. subtilis [4]; with Sulfamethoxazole): 0.94 ± 0.64
FIC 7 (B. subtilis [4]; with Tetracycline): 0.57 ± 0.50
FIC 7 (B. subtilis [4]; with Trimethoprim): 0.85 ± 0.29
FIC 7 (B. subtilis [4]; with Vancomycin): 0.17 ± 0.063
MIC (B. subtilis [4]; read-out: MIC 7): 1 µg/mL
Mean FICI (S. aureus; [7]): 0.32 and 0.32 ± 0.12
Mean FICI (S. aureus; [8]): 1.42 and 1.42 ± 0.37
FIC 7 (S. aureus; with Ampicillin): 0.15 ± 0.071
FIC 7 (S. aureus; with Bacitracin): 0.044 ± 0.019
FIC 7 (S. aureus; with Carbenicillin): 0.077 ± 0.026
FIC 7 (S. aureus; with Cefotaxime): 0.084 ± 0.031
FIC 7 (S. aureus; with Chloramphenicol): 0.81 ± 0.31
FIC 7 (S. aureus; with Fosfomycin): 0.091 ± 0.034
FIC 7 (S. aureus; with Kanamycin): 0.83 ± 0.29
FIC 7 (S. aureus; with Spectinomycin): 0.81 ± 0.32
FIC 7 (S. aureus; with Sulfamethoxazole): 0.98 ± 0.37
FIC 7 (S. aureus; with Tetracycline): 0.51 ± 0.24
FIC 7 (S. aureus; with Trimethoprim): 0.57 ± 0.25
FIC 7 (S. aureus; with Vancomycin): 0.15 ± 0.062
MIC (S. aureus; read-out: MIC 7): 1 µg/mL
FICI on average ([6]; with known cell wall biosynthesis inhibitors, n=13 cell/inhibitor combinations): ~ 0.35
FICI on average ([6]; with non cell-wall biosynthesis inhibitors, n=12 cell/inhibitor combinations): ~ 1.45
ED50 bacterial growth ([3]; abstract, bacterium not specified): ~ 0.15 μg/mL

C[C@@H]1O[C@@H]1P(=O)(O)O [Fosfomycin, fosfomycin]
FIC antibiotic (B. subtilis [4]): 0.16 ± 0.15
FIC Index (B. subtilis [4]): 0.22 ± 0.15
MIC (B. subtilis [4]; 24 h, read-out: MIC antibiotic): 200 µg/mL
FIC antibiotic (S. aureus): 0.20 ± 0.11
MIC (S. aureus; 24 h, read-out: MIC antibiotic): 200 µg/mL

O=CN(O)CCCP(=O)(O)O [Fosmidomycin, fosmidomycin]
FIC antibiotic (B. subtilis [4]): 0.039 ± 0.0053
FIC Index (B. subtilis [4]): 0.17 ± 0.056
FIC Index (B. subtilis [4]; listed as fosmidomycin): 0.17
MIC (B. subtilis [4]; 24 h, read-out: MIC antibiotic): 5 µg/mL

CN[C@@H]1[C@H](O)[C@H](NC)[C@H]2O[C@@]3(O)C(=O)C[C@@H](C)O[C@H]3O[C@@H]2[C@H]1O [Spectinomycin, spectinomycin]
FIC antibiotic (S. aureus): 0.75 ± 0.43
FIC Index (S. aureus): 1.56 ± 0.54
MIC (S. aureus; 24 h, read-out: MIC antibiotic): 40 µg/mL

Cc1cc(NS(=O)(=O)c2ccc(N)cc2)no1 [Sulfamethoxazole, sulfamethoxazole]
FIC antibiotic (B. subtilis [4]): 0.78 ± 0.21
FIC Index (B. subtilis [4]): 1.72 ± 0.67
FIC Index (B. subtilis [4]; listed as sulfamethoxazole): 1.72
MIC (B. subtilis [4]; 24 h, read-out: MIC antibiotic): 200 µg/mL
FIC antibiotic (S. aureus): 0.54 ± 0.13
FIC Index (S. aureus): 1.53 ± 0.39
MIC (S. aureus; 24 h, read-out: MIC antibiotic): 200 µg/mL

CN(C)[C@@H]1C(O)=C(C(N)=O)C(=O)[C@@]2(O)C(O)=C3C(=O)c4c(O)cccc4[C@@](C)(O)[C@H]3C[C@@H]12 [Tetracycline, tetracycline]
FIC antibiotic (B. subtilis [4]): 0.48 ± 0.047
FIC Index (B. subtilis [4]): 1.04 ± 0.50
MIC (B. subtilis [4]; 24 h, read-out: MIC antibiotic): 5 µg/mL
FIC antibiotic (S. aureus): 0.24 ± 0.11
FIC Index (S. aureus): 0.75 ± 0.26
MIC (S. aureus; 24 h, read-out: MIC antibiotic): 0.5 µg/mL

COc1cc(Cc2cnc(N)nc2N)cc(OC)c1OC [Trimethoprim, trimethoprim]
FIC antibiotic (B. subtilis [4]): 0.66 ± 0.13
FIC Index (B. subtilis [4]): 1.51 ± 0.32
MIC (B. subtilis [4]; 24 h, read-out: MIC antibiotic): 0.5 µg/mL
FIC antibiotic (S. aureus): 0.69 ± 0.32
FIC Index (S. aureus): 1.26 ± 0.41
MIC (S. aureus; 24 h, read-out: MIC antibiotic): 15 µg/mL

CN[C@H](CC(C)C)C(=O)N[C@H]1C(=O)N[C@@H](CC(N)=O)C(=O)N[C@H]2C(=O)N[C@H]3C(=O)N[C@H](C(=O)N[C@H](C(=O)O)c4cc(O)cc(O)c4-c4cc3ccc4O)[C@H](O)c3ccc(c(Cl)c3)Oc3cc2cc(c3O[C@@H]2O[C@H](CO)[C@@H](O)[C@H](O)[C@H]2O[C@H]2C[C@](C)(N)[C@H](O)[C@H](C)O2)Oc2ccc(cc2Cl)[C@H]1O [Vancomycin, vancomycin]
FIC antibiotic (B. subtilis [4]): 0.27 ± 0.24
FIC Index (B. subtilis [4]): 0.44 ± 0.25
MIC (B. subtilis [4]; 24 h, read-out: MIC antibiotic): 0.5 µg/mL
FIC antibiotic (S. aureus): 0.14 ± 0.034
FIC Index (S. aureus): 0.29 ± 0.071
MIC (S. aureus; 24 h, read-out: MIC antibiotic): 1.5 µg/mL
